We go through five molecules from paper PMC8715119, “Second-generation non-hematopoietic erythropoietin-derived peptide for neuroprotection” (Redox Biology, 2021).

For experiment [1], the system named is undifferentiated PC12 cells. The experiment can be described thus: Cell proliferation (MTS) under low serum. It is filed as cell-based, rat. The note with it: 0.5% fetal bovine serum, 48 h, reEPO 10 IU/ml, peptides 10 ng/ml, n = 5, Fig. 4c. How it is done: PC12 cells (#CRL-1721, ATCC, USA), a rat pheochromocytoma cell line derived from the adrenal medulla (#CRL-1721, ATCC, USA), were seeded on a dish, which was coated by poly L-lysine (0.01%; Sigma Chemical Co., USA), and grown in RPMI 1640 medium (#11875093, Gibco, USA), supplemented with 10% heat-inactivated horse serum (#26050088, Gibco, USA), 5% fetal bovine serum (FBS) (#SH30919.03, Hyclone, USA), and 1% penicillin/streptomycin at 37°C with 5% CO2. […]
Cell viability was evaluated by 3-[(4,5-dimethylthiazol-2-yl)-5,3-carboxymethoxyphenyl]-2-(4-sulfophenyl)-2H tetrazolium, inner salt (MTS) reduction assay (CellTiter 96 Aqueous One Solution Cell Proliferation Assay, Promega, Madison, WI, USA). […] The intracellular soluble formazan produced by cellular reduction of the MTS was determined by recording the absorbance at 490 nm using a microplate reader (VersaMax, Molecular Devices, USA). Cell proliferation was also evaluated by the MTS assay. […] The next day, the initial cell number was counted; after 48 h, under low FBS concentration (0.5%), with or without reEPO and peptides, cell number was measured by the MTS assay.

Experiment [2] concerns differentiated neuronal PC12 cells. The experiment is described as follows: Cellular ROS level by H2DCFDA under H2O2. To be noted: H2O2 for 6 h; H2DCFDA staining; n = 5; Fig. 4b. It is filed as cell-based, rat. How it is done: (§1) PC12 cells (#CRL-1721, ATCC, USA), a rat pheochromocytoma cell line derived from the adrenal medulla (#CRL-1721, ATCC, USA), were seeded on a dish, which was coated by poly L-lysine (0.01%; Sigma Chemical Co., USA), and grown in RPMI 1640 medium (#11875093, Gibco, USA), supplemented with 10% heat-inactivated horse serum (#26050088, Gibco, USA), 5% fetal bovine serum (FBS) (#SH30919.03, Hyclone, USA), and 1% penicillin/streptomycin at 37°C with 5% CO2. For neuronal differentiation, PC12 cells were plated at a density of 1.25x10^3 cell/cm^2 into 96-well plates coated with collagen 1 (#354236, BD Biosciences, USA) and grown in RPMI 1640 medium supplemented with 50 ng/ml nerve growth factor (NGF) (BD Biosciences, USA) and 0.5% FBS for 10 days. The NGF-supplemented media was replaced with fresh media every 3 days during neuronal differentiation.
The cellular ROS level was measured using 2′,7′-dichlorodihydrofluorescein diacetate (H2DCFDA) (#D399, Invitrogen, USA). The cells were incubated with 5 μM H2DCFDA in PBS for 30 min, washed with PBS, and then resuspended in the medium for 2 h. After treatment of H2O2 without or with reEPO, or peptide, we monitored the oxidative stress by measuring the fluorescence intensities of H2DCFDA by using excitation and emission wavelengths of 485 nm and 535 nm, respectively.

Experiment [3] has the same test system. The experiment is described as follows: Cell viability (MTS) under H2O2-induced oxidative stress. It is filed as cell-based, rat. The note with it: 300 μM H2O2 for 24 h; peptides 1 ng/ml, reEPO 0.5 IU/ml; MTS; n = 3; Fig. 1c. How it is done:
as §1
Cell viability was evaluated by 3-[(4,5-dimethylthiazol-2-yl)-5,3-carboxymethoxyphenyl]-2-(4-sulfophenyl)-2H tetrazolium, inner salt (MTS) reduction assay (CellTiter 96 Aqueous One Solution Cell Proliferation Assay, Promega, Madison, WI, USA). Briefly, differentiated neuronal-PC12 cells were treated with H2O2 (300 μM) with or without reEPO and peptides for 24 h. The PC12 cells were washed with PBS; 20 ul MTS solution was added to each well with 100 μl PBS, and the cells were incubated for 3 h at 37°C and 5% CO2. The intracellular soluble formazan produced by cellular reduction of the MTS was determined by recording the absorbance at 490 nm using a microplate reader (VersaMax, Molecular Devices, USA). Cell proliferation was also evaluated by the MTS assay. Undifferentiated PC12 cells were seeded into a 96-well plate (5x10^4 cells/well). The next day, the initial cell number was counted; after 48 h, under low FBS concentration (0.5%), with or without reEPO and peptides, cell number was measured by the MTS assay.

The target of the next experiment is EphB4 (Homo sapiens) (UniProt P54760). The note with it: cited from earlier work.
The conditions of experiment [4]: as previously reported; cited from earlier work. How it is done:
(§2) All peptides including ML1, ML1-c1, ML1-c2, ML1-c3, ML1-h1, ML1-h2, and ML1-h3 were synthesized as monomers by solid-phase peptide synthesis. […] To evaluate the purity and concentration of the peptides, LC/MSD (HP 1100 series) and HPLC analyses (SHIMADZU prominence HPLC) were performed. We obtained peptides having >95% purity and then dissolved with DMSO or water as a high ...

A further experiment concerns EPOR. To be noted: as previously reported; cited from earlier work. How it is done: as §2
Experiment [5] deals with T1, Soluble recombinant human EPOR-Fc chimera protein (human, UniProt P19235 25-250).
T1 construct: erythropoietin receptor (EPOR), human, soluble form fused to Fc; the discussion says the SPR analysis was based on only the extracellular domain of EPOR; also called erythropoietin receptor; source: bought: R&D Systems (#963-ER)
T1 sequence (looked up): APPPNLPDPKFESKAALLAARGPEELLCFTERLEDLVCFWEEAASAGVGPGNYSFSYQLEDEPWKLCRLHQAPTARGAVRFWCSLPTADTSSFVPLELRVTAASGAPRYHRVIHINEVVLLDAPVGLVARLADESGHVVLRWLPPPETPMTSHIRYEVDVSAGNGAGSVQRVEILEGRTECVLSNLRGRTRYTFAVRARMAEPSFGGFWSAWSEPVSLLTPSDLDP
The experiment can be described thus: SPR; Reichert SR 7500 C; EPOR-Fc covalently immobilised by amine coupling on a carboxymethylated dextran chip; peptides at 5, 2.5 and 1.25 uM flowed at 5 ul/min, in duplicate; regeneration with 25 mM acetic acid. To be noted: both partners purified.

Chain of EphB4 (Homo sapiens) (P54760 16-539): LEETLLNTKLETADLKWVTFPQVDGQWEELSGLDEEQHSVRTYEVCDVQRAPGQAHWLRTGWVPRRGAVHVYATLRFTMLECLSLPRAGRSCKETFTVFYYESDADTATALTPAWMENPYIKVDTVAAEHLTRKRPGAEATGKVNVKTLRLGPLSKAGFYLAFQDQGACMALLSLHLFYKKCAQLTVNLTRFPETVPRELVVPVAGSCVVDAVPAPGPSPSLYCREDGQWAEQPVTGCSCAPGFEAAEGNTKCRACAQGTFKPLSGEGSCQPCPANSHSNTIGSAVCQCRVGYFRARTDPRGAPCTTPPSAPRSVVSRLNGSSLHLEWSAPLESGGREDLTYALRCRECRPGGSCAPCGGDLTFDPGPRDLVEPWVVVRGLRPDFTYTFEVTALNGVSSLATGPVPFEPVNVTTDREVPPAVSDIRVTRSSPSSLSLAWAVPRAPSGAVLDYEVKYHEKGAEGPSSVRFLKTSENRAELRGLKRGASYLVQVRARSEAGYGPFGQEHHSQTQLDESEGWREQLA

As for “ML1: monomeric peptide spanning 118Leu-140Gly of helix C of EPO; prototype for second-generation EPO-derived peptide (LQLHVDKAVSGLRSLTTLLRALG)”, the “Cell proliferation (cell number)” value in experiment [1] was “did not induce proliferation”. The “Level of reactive oxygen species (ROS) induced by H2O2” value in experiment [2] is given as “decreased the levels of reactive oxygen species (ROS)”. The “Cell viability (neuroprotective effect) against H2O2” value in experiment [3] is reported as “a better neuroprotective effect than reEPO”.
In general, Kd refers to the free concentration of one partner at which half of the binding sites on the other are occupied at equilibrium, for simple one-to-one binding. For EPO (from UniProt P01588), the Kd in the experiment with EphB4 (Homo sapiens) was 880 nM.
Consider “AMELSGRTLGLILKLRQSATL [negative control peptide]”, for which, in experiment [4], the “Effect on cell survival and proliferation” value was “unaffected cell survival and proliferation”. Further, the “Binding to EPOR” value in the experiment with EPOR is on record as “did not bind to EPOR”.
Regarding “ML4: monomeric peptide spanning 127Ser-140Gly of helix C of EPO”, the “Cell viability (neuroprotective effect) against H2O2” value in experiment [3] is “showed a neuroprotective effect”.

B1: ML1 (peptide, UniProt P01588 118-140, looked up)
peptide: LQLHVDKAVSGLRSLTTLLRALG
notes: Monomeric peptide; also called ML1 prototype; source: synthetic peptide (solid-phase synthesis, monomer, >95% purity; bought: Peptron Inc.)
As for B1, the binding result in experiment [5] was “binds”.
